Each structure is given as a SMILES string. Where a name gives a salt, the structure may show the parent alone.

As usually defined, the EC50 is the concentration needed to bring the measured effect to its halfway point. One may read the CC50 as the concentration that lowers cell viability or growth by half. A low value points to harm at low concentration.

Series [1] has as its target T1, HCMV DNA polymerase (UL54) (Human cytomegalovirus, UniProt P08546).
T1 construct: 6His (C); made in house; host or cells: Sf9 insect cells (baculovirus, pFastBac)
In words: HCMV DNA polymerase enzyme inhibition assay (ProFoldin, fluorescence). In kind it is biochemical. The settings on record: 37° C., duplicate, max 40 μM. The procedure:
The HCMV DNA polymerase assay was developed by ProFoldin. The assay detects the formation of DNA from the DNA polymerase reaction in the presence of a DNA template, dATP and dGTP. The formation of the DNA is detected by using a fluorescence method. The fluorescence intensity increases when DNA is generated by the enzyme reaction.
A time-course experiment was performed aside the enzyme inhibition assay to ensure the assay was sensitive to the enzyme inhibition. The wells for the time-course experiment contained 1 μL of DMSO and the same reaction mixture as that in the enzyme inhibition assay. The time-course data varied between plates. The reactions were stopped when the fluorescence reached a value of about 3700 for each plate.
Exemplary solid compounds (e.g., as described herein) were dissolved in DMSO to make […] stock solutions. PFA (phosphonoformic acid or phosphonomethanoic acid) was used as a positive control. The compound mother plates were prepared at 50× concentrated compound concentrations with a 2-fold serial dilution. All the exemplary compounds except PFA were diluted in DMSO. PFA was diluted in water. The maximum compound concentration was 2 mM that gave the final concentration of 40 μM in the assay. One microliter of the 50× stock solutions was transferred into the assay plates. Three copies of assay plates were prepared, two for HCMV DNA polymerase assay and one for compound background control.
The following is the protocol for enzyme inhibition performed at 37° C.:
1. Prepared a premix composed of 35347 μL of H2O, 5220 μL of 10× assay buffer and 149 μL of 350×HCMV DNA polymerase.
2. Added 39 μL of the premix into the wells with 1 μL of the compound. Incubated the mixture for at least 5 min.
3. Added 10 μL of 5×dNTP (0.1 mM), 5×DNA template solutions into each well and incubated the solution until the fluorescence value reached a value about 3700 for the DMSO-only control wells.
4. Added 50 μL of the 1× dye into the wells.
5. Read the fluorescence at emission wavelength of 535 nm and excitation wavelength of 485 nm.
For the compound background reading, added 99 μL of water in the wells with 1 μL of compounds and read the fluorescence. […] The 0% inhibition value F0 was from the wells with DMSO (no inhibitor).
The background values were subtracted from the fluorescence reading to get the net fluorescence values. The net fluorescence values were used for calculation of the percentage inhibition.
The assay was performed in duplicate for the test article at […], 1.25, 0.625, 0.313, 0.156 and 0.078 μM. The IC50 curves were obtained by fitting the percentage inhibition values with the compound concentrations using Prism GraphPad software.

For series [2], the system named is HCMV US3-6-EGFP-HCMV-AD169 strain. The series can be described thus: In vitro inhibitory (antiviral) activity against HCMV, GFP reporter in MRC5 cells. Type of series: cell-based, Human cytomegalovirus (HCMV). Particulars: Human betaherpesvirus 5, AD169, MRC5, 96 h, read-out: HCMV Antiviral EC50 range. The procedure:
(§1) Exemplary compounds (e.g., as described herein) were prepared as 20 mM stock solutions with DMSO. Reference compound was ganciclovir (Sigma). Compounds were tested at 8 concentrations, 3-fold serial dilutions, in duplicate for EC50 and CC50 determinations. The highest testing concentrations of the exemplary compounds and reference compound were 40 μM and 100 μM, respectively. The final concentration of DMSO in the cell culture was 0.5%.
HCMV US3-6-EGFP-HCMV-AD169 strain was obtained from Institute Pasteur of Shanghai, CAS. The virus contains GFP as a reporter of the viral replication.
(§2) MRC5 cells (ATCC CCL-171) was obtained from the ATCC and maintained in the EMEM (Sigma) supplemented with 10% FBS (HyClone), 1% L-glutamine (Gibco), 1% NEAA (Gibco), and 1% PS (Hyclone). Reagent:
In 96-well plates, MRC5 cells were seeded at 20,000 cells per well and cultured at 37° C. and 5% C02 overnight. Next day, compounds (8 concentrations, 3-fold dilutions, in duplicate) and US3-6-EGFP-HCMV-AD169 (MOI=0.1) were added to the cells. The resulting cultures were incubated at 37° C. and 5% C02 for 4 days. Fluorescence intensity was determined by Acumen Cellista (TTP LabTech). The antiviral activity of each compound was calculated based on the inhibition of expression of GFP at each concentration normalized by the cell control (cells without virus infection or compound treatment).
(§3) Antiviral activity and cytotoxicity of the compounds were expressed as % Inhibition and % Viability, respectively, and calculated with the formulas below:
Inhibition (%)=100−(Raw dataCPD−AverageCC)/(AverageVC−AverageCC)*100
(§4) Raw dataCPD indicates the values of the compound-treated wells; AverageVC, AverageCC and AverageMC indicate the average values of the virus control (cells infected with virus, without compound treatment), cell control and medium control wells, respectively.
(§5) EC50 and CC50 values were calculated using the GraphPad Prism software.

Series [3] can be described thus: Cytotoxicity in MRC5 cells without virus infection (CCK8). Type of series: cell-based. The settings on record: human. As for the experimental part: as §1, §2
Cytotoxicity of the compounds was assessed under the same conditions, but without virus infection, in parallel. Cell viability was measured with CCK8 following the manufacturer's manual. CC50 values were then calculated based on cytotoxicity at the test concentrations normalized by the medium control (medium only).
as §3
Viability (%)=(Raw dataCPD−AverageMC)/(AverageCC−AverageMC)*100
as §4, §5

In another series the target is T2, hERG potassium channel (Homo sapiens, UniProt Q12809).
T2 construct: host or cells: CHO cells stably expressing hERG
In words: Inhibition of hERG potassium channel, automated patch clamp (SyncroPatch 384PE) in CHO cells. Type of series: cell-based. Particulars: CHO cells stably expressing hERG, room temperature, 0.494-40.00 μM; read-out: CHO-hERG Activity Range. As for the experimental part: This automated patch clamp method (SyncroPatch 384PE) CHO cells stably expressing hERG potassium channels from Sophion Biosciences were used for this test.
The cells were cultured in a humidified and air-controlled (5% C02) incubator at 37° C.
The CHO cells which were at least two days after plating and more than 75% confluent would be used for experiments. Before testing, cells were harvested using TrypLE and resuspended in the physiological solution at the room temperature.
For the electrophysiological recordings the following solutions were used (Table 5). The physiological solution and external solution were prepared at least one month. The intracellular solution was prepared in batches aliquoted, and stored at 4° C. until used.
Exemplary compounds (e.g., as described herein) were dissolved in 100% DMSO to obtain stock solutions for different test concentrations. Then the stock solutions were further diluted into external solution to achieve final concentrations for testing. Visual check for precipitation was conducted before testing. Final DMSO concentration in external solution was not more than 0.30% for the compounds.
From this holding potential of −80 mV, the voltage was first stepped to −50 mV for 80 ms for leak subtraction, and then stepped to +20 mV for 4800 ms to open hERG channels. After that, the voltage was stepped back down to −50 mV for 5000 ms, causing a “rebound” or tail current, which was measured and collected for data analysis. Finally, the voltage was stepped back to the holding potential (−80 mV, 1000 ms). This voltage command protocol was repeated every 20000 msec. This command protocol was performed continuously during the test (vehicle control and test compound).
hERG SyncroPatch assay was conducted at room temperature. The Setup, Prime Chip, Catch and Seal Cells, Amplifier Settings, Voltage and Application Protocols were established with Biomek Software (Nanion).
One addition of 40 μL of the vehicle was applied, followed by 300s for a baseline period. Then the doses of exemplary test compounds were added with 40 μL. The exposure of test compound at each concentration was no less than 300s. […] Five concentrations (0.494 μM, 1.48 μM, 4.44 μM, 13.33 μM and 40.00 μM) were tested for each compound. Minimum 2 replicates per concentration were obtained.
Within each well recording, percent of control values were calculated for each test compound concentration current response based on peak current in presence of reference control (current response/peak current)×100%. The Dose-Response curves were fit to the standard Hill equation as shown below:
Ipost cpd/Ipre cpd=Bottom+(Top−Bottom)/(1+10^((Log IC50−X)*HillSlope))
Where X is the logarithm of concentration, Ipost cpd/Ipre cpd is the normalized peak current amplitude, Top is 1 and Bottom is equal to 0.
Curve-fitting and IC50 calculations were performed by GraphPad Prism 5.0. If the inhibition obtained at the lowest concentration tested was over 50%, or at the highest concentration tested was less than 50%, we reported the IC50 as less than lowest concentration, or higher than highest concentration, respectively.

T1 sequence (P08546 whole entry): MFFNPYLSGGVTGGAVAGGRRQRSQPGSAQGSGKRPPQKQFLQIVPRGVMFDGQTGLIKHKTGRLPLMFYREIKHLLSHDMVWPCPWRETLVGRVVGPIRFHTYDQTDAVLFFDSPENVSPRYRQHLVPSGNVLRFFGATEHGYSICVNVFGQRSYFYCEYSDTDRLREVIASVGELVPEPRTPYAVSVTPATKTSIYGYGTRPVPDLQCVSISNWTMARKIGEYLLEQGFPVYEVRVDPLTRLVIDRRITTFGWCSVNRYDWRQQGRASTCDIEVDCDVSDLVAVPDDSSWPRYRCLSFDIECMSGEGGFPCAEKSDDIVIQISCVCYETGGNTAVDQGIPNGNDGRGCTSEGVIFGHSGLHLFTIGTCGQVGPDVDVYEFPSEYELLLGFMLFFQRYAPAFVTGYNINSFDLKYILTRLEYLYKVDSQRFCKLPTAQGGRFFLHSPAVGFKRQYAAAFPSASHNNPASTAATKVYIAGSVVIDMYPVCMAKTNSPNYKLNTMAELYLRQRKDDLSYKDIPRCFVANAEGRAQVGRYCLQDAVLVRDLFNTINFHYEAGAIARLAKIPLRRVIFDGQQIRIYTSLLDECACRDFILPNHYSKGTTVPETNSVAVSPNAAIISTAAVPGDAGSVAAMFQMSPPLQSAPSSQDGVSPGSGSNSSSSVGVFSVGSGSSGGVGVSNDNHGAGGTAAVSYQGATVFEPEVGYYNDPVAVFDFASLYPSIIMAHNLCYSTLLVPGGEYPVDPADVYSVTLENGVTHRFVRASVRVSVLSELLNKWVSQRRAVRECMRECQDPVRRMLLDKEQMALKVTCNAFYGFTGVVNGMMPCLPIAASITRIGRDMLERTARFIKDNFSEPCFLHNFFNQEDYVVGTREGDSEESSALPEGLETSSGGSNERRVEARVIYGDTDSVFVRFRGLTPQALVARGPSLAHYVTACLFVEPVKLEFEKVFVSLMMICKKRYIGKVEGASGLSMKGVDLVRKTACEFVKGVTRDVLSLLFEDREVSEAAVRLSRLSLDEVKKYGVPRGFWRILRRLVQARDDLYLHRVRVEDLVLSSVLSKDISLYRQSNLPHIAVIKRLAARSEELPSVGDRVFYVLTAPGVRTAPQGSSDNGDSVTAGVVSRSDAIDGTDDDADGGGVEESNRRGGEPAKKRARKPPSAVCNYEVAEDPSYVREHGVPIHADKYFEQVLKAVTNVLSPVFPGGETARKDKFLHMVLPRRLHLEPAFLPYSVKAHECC
T2 sequence (Q12809 whole entry): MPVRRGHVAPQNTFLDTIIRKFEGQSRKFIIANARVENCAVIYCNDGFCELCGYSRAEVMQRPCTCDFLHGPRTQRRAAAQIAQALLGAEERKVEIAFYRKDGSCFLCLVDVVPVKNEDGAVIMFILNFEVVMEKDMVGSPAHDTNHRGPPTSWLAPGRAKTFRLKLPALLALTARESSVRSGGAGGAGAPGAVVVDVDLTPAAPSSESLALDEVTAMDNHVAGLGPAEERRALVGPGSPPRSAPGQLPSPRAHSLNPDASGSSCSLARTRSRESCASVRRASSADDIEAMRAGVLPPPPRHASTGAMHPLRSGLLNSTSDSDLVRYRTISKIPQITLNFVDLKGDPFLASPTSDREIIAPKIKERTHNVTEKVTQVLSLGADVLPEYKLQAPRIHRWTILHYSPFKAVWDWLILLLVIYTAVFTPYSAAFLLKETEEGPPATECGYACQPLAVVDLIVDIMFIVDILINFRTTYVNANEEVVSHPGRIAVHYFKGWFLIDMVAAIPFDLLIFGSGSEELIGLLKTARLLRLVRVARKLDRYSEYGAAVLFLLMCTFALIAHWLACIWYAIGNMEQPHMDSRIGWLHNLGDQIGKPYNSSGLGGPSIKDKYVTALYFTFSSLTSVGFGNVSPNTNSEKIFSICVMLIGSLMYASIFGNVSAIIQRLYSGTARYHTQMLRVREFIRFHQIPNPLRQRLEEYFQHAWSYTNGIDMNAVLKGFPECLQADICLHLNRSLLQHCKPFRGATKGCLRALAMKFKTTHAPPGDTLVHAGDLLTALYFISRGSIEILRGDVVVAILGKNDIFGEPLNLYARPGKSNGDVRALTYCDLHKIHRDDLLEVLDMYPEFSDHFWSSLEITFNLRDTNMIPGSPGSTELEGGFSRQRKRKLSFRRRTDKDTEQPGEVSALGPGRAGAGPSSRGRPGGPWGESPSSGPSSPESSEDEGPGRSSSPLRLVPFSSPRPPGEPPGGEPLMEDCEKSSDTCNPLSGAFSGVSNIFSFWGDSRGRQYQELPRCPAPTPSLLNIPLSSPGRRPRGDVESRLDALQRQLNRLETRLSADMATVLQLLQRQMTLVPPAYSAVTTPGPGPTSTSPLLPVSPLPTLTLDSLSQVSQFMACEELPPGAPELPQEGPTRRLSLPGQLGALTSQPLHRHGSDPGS

For the compound `CN(CCN1CCN(c2cnc3c(cc(C(=O)NCc4ccc(Cl)cc4)c(=O)n3CC(=O)N3CC(C)(F)C3)n2)C1=O)S(C)(=O)=O` [Compound 24, N-[(4-chlorophenyl)methyl]-5-[2-(3-fluoro-3-methylazetidin-1-yl)-2-oxoethyl]-2-(3-{2-[(methanesulfonyl)(methyl)amino]ethyl}-2-oxoimidazolidin-1-yl)-6-oxo-5,6-dihydropyrido[2,3-b]pyrazine-7-carboxamide], in series [1], the IC50 is above 1000 nM.
For the compound `CC1(F)CN(C(=O)Cn2c(=O)c(C(=O)NCc3ccc(Cl)cc3)cc3nc(N4CCN(CCNC(=O)CN)C4=O)cnc32)C1` [Compound 38, N-[(4-chlorophenyl)methyl]-5-[2-(3-fluoro-3-methylazetidin-1-yl)-2-oxoethyl]-2-{3-[2-(glycylamino)ethyl]-2-oxoimidazolidin-1-yl}-6-oxo-5,6-dihydropyrido[2,3-b]pyrazine-7-carboxamide-hydrochloride salt], in series [1], the IC50 was below 1000 nM.
`CCOC(=O)CCN1CCN(c2cnc3c(cc(C(=O)NCc4ccc(Cl)cc4)c(=O)n3CC(=O)N3CC(C)(F)C3)n2)C1=O` [Compound 17, ethyl 3-[3-(7-{[(4-chlorophenyl)methyl]carbamoyl}-5-[2-(3-fluoro-3-methylazetidin-1-yl)-2-oxoethyl]-6-oxo-5,6-dihydropyrido[2,3-b]pyrazin-2-yl)-2-oxoimidazolidin-1-yl]propanoate]: in series [1], the IC50 is below 1000 nM.
Consider `CN1CCN(c2cnc3c(cc(C(=O)NCc4ccc(F)cc4)c(=O)n3CC(=O)N3CC4(CC4)C3)n2)C1=O` [Compound 10, 5-[2-(5-azaspiro[2.3]hexan-5-yl)-2-oxoethyl]-N-[(4-fluorophenyl)methyl]-2-(3-methyl-2-oxoimidazolidin-1-yl)-6-oxo-5,6-dihydropyrido[2,3-b]pyrazine-7-carboxamide], for which, in series [1], the IC50 is below 1000 nM.
Turning to `CC1(C)CN(C(=O)Cn2c(=O)c(C(=O)NCc3ccc(Cl)cc3)cc3cc(N4CCN(CC(=O)O)C4=O)cnc32)C1` [Compound 7, [3-(6-{[(4-chlorophenyl)methyl]carbamoyl}-8-[2-(3,3-dimethylazetidin-1-yl)-2-oxoethyl]-7-oxo-7,8-dihydro-1,8-naphthyridin-3-yl)-2-oxoimidazolidin-1-yl]acetic acid], in series [2], the half-maximal effective concentration (EC50) is above 1000 nM. Moreover, in series [3], the 50% cytotoxic concentration (CC50) at 4 days was above 40000 nM. The IC50 at hERG potassium channel is above 10000 nM.
In series [1], `CNCCN1CCN(c2cnc3c(cc(C(=O)NCc4ccc(Cl)cc4)c(=O)n3CC(=O)N3CC(C)(F)C3)n2)C1=O` [Compound 23, N-[(4-chlorophenyl)methyl]-5-[2-(3-fluoro-3-methylazetidin-1-yl)-2-oxoethyl]-2-{3-[2-(methylamino)ethyl]-2-oxoimidazolidin-1-yl}-6-oxo-5,6-dihydropyrido[2,3-b]pyrazine-7-carboxamide-hydrogen chloride] showed an IC50 below 1000 nM.
For `CN1CCN(c2cnc3c(cc(C(=O)NCc4ccc(C#N)cc4)c(=O)n3CC(=O)N3CC4(CC4)C3)n2)C1=O` [Compound 11, 5-[2-(5-azaspiro[2.3]hexan-5-yl)-2-oxoethyl]-N-[(4-cyanophenyl)methyl]-2-(3-methyl-2-oxoimidazolidin-1-yl)-6-oxo-5,6-dihydropyrido[2,3-b]pyrazine-7-carboxamide], in series [1], the IC50 is below 1000 nM.
Take `CC1(F)CN(C(=O)Cn2c(=O)c(C(=O)NCc3ccc(Cl)cc3)cc3nc(N4CCN(CCN5CCOCC5)C4=O)cnc32)C1` [Compound 39, N-[(4-chlorophenyl)methyl]-5-[2-(3-fluoro-3-methylazetidin-1-yl)-2-oxoethyl]-2-{3-[2-(morpholin-4-yl)ethyl]-2-oxoimidazolidin-1-yl}-6-oxo-5,6-dihydropyrido[2,3-b]pyrazine-7-carboxamide]: in series [1], the IC50 was above 1000 nM.
Regarding `CC1(F)CN(C(=O)Cn2c(=O)c(C(=O)NCc3ccc(Cl)cc3)cc3nc(N4CCN(CCC(=O)O)C4=O)cnc32)C1` [Compound 18, 3-[3-(7-{[(4-chlorophenyl)methyl]carbamoyl}-5-[2-(3-fluoro-3-methylazetidin-1-yl)-2-oxoethyl]-6-oxo-5,6-dihydropyrido[2,3-b]pyrazin-2-yl)-2-oxoimidazolidin-1-yl]propanoic acid], the IC50 was below 1000 nM in series [1] and above 10000 nM on hERG potassium channel. Also, in series [3], the 50% cytotoxic concentration (CC50) at 4 days is above 40000 nM.
